Source: PubChem BioAssay AID1963873 (Molecular Pharmacology Branch, DTP, NCI, 2024)
Values joined by “and” are separate entries in the source; they are usually repeats but may differ in a detail not shown here. Equal values may be shown once.

System: 276233-004-R-J1-PDC KRAS spheroids with HUVEC/MSC, viability
Assay: Anticancer human tumor 276233-004-R-J1-PDC patient-derived colon adenocarcinoma cell line growth inhibition [KRAS2]
Conditions: for viability, T/C: stronger effect = lower value
Excerpt: Multicellular complex tumor spheroid response to RAS pathway inhibitors in combination with a targeted agents in patient-derived cell lines with oncogenic KRAS variants from multiple cancer types
A high-throughput screen of multi-cell type tumor spheroids was designed to identify active combinations of targeted small molecules and KRAS pathway inhibitors. Complex spheroids include a stromal component modeled by human endothelial cells (HUVEC) and fibroblasts modeled by human mesenchymal stem cells (MSCs). The concentration ranges selected for each drug and investigational agent were based upon clinically achievable concentrations if the clinical Cmax of the agent was known.
Compounds. The drugs and investigational agents: BI-3406 (NSC825286), BAY-293 (NSC824723), batoprotafib (TNO155; NSC825523), sotorasib (AMG 510; NSC818433), MRTX1257 (NSC819558), elimusertib (BAY 1895344; NSC800525), molibresib (GSK525762; NSC774829), temuterkib (LY3214996; NSC803410), venetoclax (NSC766270), alisertib (NSC759677), olaparib (NSC753686), talazoparib (NSC767125), erdafitinib (NSC781556), ipatasertib (NSC767898), cabozantinib (NSC761068), nintedanib (NSC756659), abemaciclib (NSC768073), docetaxel (NSC628503), trametinib (NSC758246), and sapanisertib (NSC764658) were obtained from the National Cancer Institute (NCI) Developmental Therapeutics Program Chemical Repository. The FDA-approved anticancer drug set is available from the Developmental Therapeutics Program. […] The stock solutions were prepared in dimethyl sulfoxide (DMSO, Sigma-Aldrich, St. Louis, MO, cat. D2650) at 800-fold the tested concentration and stored at -70 degrees C prior to their use. All drugs and investigational agents were tested over a range starting from a high concentration at or near the clinical Cmax and decreasing in half-log increments. If the clinical Cmax for an agent had not been determined, the highest concentration tested was 10 microM.
Cell Culture. All cells were maintained in an incubator at 37 degrees C and 5% CO2 with 95% humidity. The PDC lines were cultured according to standard operating procedures established by the NCI PDMR (https://pdmr.cancer.gov/sops/default.htm). Briefly, all PDCs were thawed and cultured in Matrigel-coated flasks prepared with a working solution of 1X Ham's F-12 nutrient mix, without supplementation (Invitrogen, Waltham, MA, cat. 11765054), 100 U/mL penicillin-streptomycin (Invitrogen, cat. 15140122), and 2.5% Matrigel (Corning Inc., Corning, NY, cat. 354248) for the first three passages. All PDCs were cultured in complete DMEM/F-12 media containing advanced DMEM/F-12 (Invitrogen, cat. 12634028), 4.9% defined fetal bovine serum, heat inactivated (HyClone Laboratories Inc., Logan, UT, cat. SH30070.03HI), 389 ng/mL hydrocortisone (Sigma-Aldrich, cat. H4001), 9.7 ng/mL human EGF recombinant protein (Invitrogen, cat. PHG0313), 23.4 microg/mL adenine (Sigma-Aldrich, cat. A2786), 97.3 U/mL penicillin-streptomycin (Invitrogen, cat. 15140122), 1.9 mM L-glutamine (Invitrogen, cat. 25030081), and 9.7 microM Y-27632 dihydrochloride (Tocris Bioscience, Bristol, United Kingdom, cat. 1254). The PDCs were cultured in complete DMEM/F12 media without 9.7 microM Y-27632 dihydrochloride for at least two passages prior to the screen. The established cell line HOP-62 was cultured in RPMI 1640 medium, HEPES (Invitrogen, cat. 22400105) with 10% defined fetal bovine serum (HyClone Laboratories Inc., cat. SH30070.03) and 2 mM L-glutamine (Invitrogen, cat. 25030081). The pooled donor HUVEC were cultured in endothelial cell growth medium 2 (PromoCell, Heidelberg, Germany, cat. C-22011) and the hMSC were cultured in mesenchymal stem cell growth medium 2 (PromoCell, cat. C-28009). For all experiments, HUVEC and hMSC were used at passages </=5, while the malignant cell lines were used at passages </=15. […]

[1] = compound alone, run of 07/12/2021
[2] = compound alone, run of 07/19/2021
[3] = compound alone, run of 07/26/2021
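Note: cells exposed to agents for seven days before viability read.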
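Throughout, for viability, T/C: 100% = DMSO vehicle control wells and lower values mean fewer viable cells.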

| Compound | viability, T/C (compound 0.0316 µM) | IC50 (curve of compound) | viability, T/C (compound 0.316 µM) | viability, T/C (compound 1 µM) | viability, T/C (compound 0.1 µM) | other results |
| --- | --- | --- | --- | --- | --- | --- |
| C=CC(=O)N1CCN(c2nc(=O)n(-c3c(C)ccnc3C(C)C)c3nc(-c4c(O)cccc4F)c(F)cc23)C(C)C1 (configuration not stated) | – | – | – | – | – | IC50 [1]: > 10 µM; IC50 [2]: > 10 µM; IC50 [3]: > 10 µM |
| C=CC(=O)N1CCN(c2nc(OCC3CCCN3C)nc3c2CCN(c2cccc4cccc(C)c24)C3)CC1CC#N (configuration not stated) | – | – | – | – | – | IC50 [1]: > 3.16 µM and 2.82 µM; IC50 [2]: > 3.16 µM and 2.57 µM and 2.49 µM; IC50 [3]: > 3.16 µM |
| CC(=O)Nc1cccc(-n2c(=O)n(C3CC3)c(=O)c3c(Nc4ccc(I)cc4F)n(C)c(=O)c(C)c32)c1 | 21.5% [middle of 5 runs] | 9.31 nM [middle of 5 runs] | – | – | – | viability, T/C (compound 0.0001 µM): 95.5% [middle of 5 runs]; viability, T/C (compound 0.000316 µM): 85.5% [middle of 5 runs]; viability, T/C (compound 0.00316 µM): 68.5% [middle of 5 runs]; viability, T/C (compound 0.01 µM): 54.7% [middle of 5 runs] |
| CC(=O)OC12COC1CC(O)C1(C)C(=O)C(O)C3=C(C)C(OC(=O)C(O)C(NC(=O)OC(C)(C)C)c4ccccc4)CC(O)(C(OC(=O)c4ccccc4)C21)C3(C)C (configuration not stated) | – | > 3.16 µM | 88.6% [middle of 5 runs] | 94.5% [middle of 5 runs] | – | viability, T/C (compound 0.01 µM): 90.3% [middle of 5 runs]; viability, T/C (compound 3.16 µM): 92.1% [middle of 5 runs] |
| CC(C)NCC(C(=O)N1CCN(c2ncnc3c2C(C)CC3O)CC1)c1ccc(Cl)cc1 (configuration not stated) | 91% [middle of 5 runs] | > 10 µM | 79.8% [middle of 5 runs] | – | 91.5% [middle of 5 runs] | viability, T/C (compound 10 µM): 73.1% [middle of 5 runs] |
| CC(C)n1nc(-c2ccc3oc(N)nc3c2)c2c(N)ncnc21 | 60.8% [middle of 5 runs] | > 0.1 µM | – | – | 59.6% [middle of 5 runs] | viability, T/C (compound 0.000316 µM): 98.1% [middle of 5 runs]; viability, T/C (compound 0.001 µM): 86.1% [middle of 5 runs]; viability, T/C (compound 0.01 µM): 66.5% [middle of 5 runs] |
| CC1(C)CCC(CN2CCN(c3ccc(C(=O)NS(=O)(=O)c4ccc(NCC5CCOCC5)c([N+](=O)[O-])c4)c(Oc4cnc5[nH]ccc5c4)c3)CC2)=C(c2ccc(Cl)cc2)C1 | 93.5% [middle of 5 runs] | > 10 µM | 102% [middle of 5 runs] | 93.4% [middle of 5 runs] | 88.8% [middle of 5 runs] | – |
| CC1COCCN1c1cc(-c2ccnn2C)c2ccnc(-c3ccn[nH]3)c2n1 (configuration not stated) | – | > 3.16 µM and 0.735 µM | – | – | 82% [middle of 5 runs] | viability, T/C (compound 0.01 µM): 96.2% [middle of 5 runs] |
| CC1OCC2(CCN(c3cnc(Sc4ccnc(N)c4Cl)c(N)n3)CC2)C1N (configuration not stated) | 83.3% and 88.2% and 102% | > 10 µM | – | – | – | IC50 [2]: > 10 µM; IC50 [3]: > 10 µM |
| CCN1CCN(Cc2ccc(Nc3ncc(F)c(-c4cc(F)c5nc(C)n(C(C)C)c5c4)n3)nc2)CC1 | – | > 1 µM | 95.5% [middle of 5 runs] | 106% [middle of 5 runs] | 82.8% [middle of 5 runs] | viability, T/C (compound 0.01 µM): 92.1% [middle of 5 runs] |
| CCNC(=O)CC1N=C(c2ccc(Cl)cc2)c2cc(OC)ccc2-n2c(C)nnc21 (configuration not stated) | 95.8% [middle of 5 runs] | > 10 µM and 5.56 µM | 68.2% [middle of 5 runs] | 70.9% [middle of 5 runs] | 88.7% [middle of 5 runs] | viability, T/C (compound 3.16 µM): 71.3% [middle of 5 runs] |
| CN(C)C/C=C/C(=O)Nc1cc2c(Nc3ccc(F)c(Cl)c3)ncnc2cc1O[C@H]1CCOC1 | 97.7% [middle of 5 runs] | > 0.1 µM | – | – | 90% [middle of 5 runs] | viability, T/C (compound 0.000316 µM): 98.5% [middle of 5 runs]; viability, T/C (compound 0.001 µM): 92.7% [middle of 5 runs]; viability, T/C (compound 0.00316 µM): 90.8% [middle of 5 runs]; viability, T/C (compound 0.01 µM): 95.8% [middle of 5 runs] |
| CNCc1ccccc1-c1csc(C(C)Nc2nc(C)nc3cc(OC)c(OC)cc23)c1 (configuration not stated) | – | – | – | – | – | viability, T/C (compound 10 µM): 1.13% [middle of 15 runs]; IC50 [2]: 1.25 µM [middle of 4 runs]; IC50 [3]: 1.67 µM [middle of 5 runs] |
| COC(=O)c1ccc2c(C(=Nc3ccc(N(C)C(=O)CN4CCN(C)CC4)cc3)c3ccccc3)c(O)[nH]c2c1 | 93.3% [middle of 5 runs] | > 10 µM | 81.9% [middle of 5 runs] | 86.2% [middle of 5 runs] | 90.3% [middle of 5 runs] | – |
| COc1cc(Nc2ncc3c(n2)-c2ccc(Cl)cc2C(c2c(F)cccc2OC)=NC3)ccc1C(=O)O | – | > 10 µM | 93.1% [middle of 5 runs] | 87.7% [middle of 5 runs] | 99.8% [middle of 5 runs] | viability, T/C (compound 3.16 µM): 95.5% [middle of 5 runs] |
| COc1cc(OC)cc(N(CCNC(C)C)c2ccc3ncc(-c4cnn(C)c4)nc3c2)c1 | 76.3% [middle of 5 runs] | – | 67% [middle of 5 runs] | – | 67.4% [middle of 5 runs] | – |
| COc1cc2nc(C)nc(NC(C)c3cc(N)cc(C(F)(F)F)c3)c2cc1OC1CCOC1 (configuration not stated) | – | – | – | – | – | IC50 [3]: 8.44 µM [middle of 6 runs] |
| COc1cc2nccc(Oc3ccc(NC(=O)C4(C(=O)Nc5ccc(F)cc5)CC4)cc3)c2cc1OC | 93.2% [middle of 5 runs] | > 10 µM | – | – | 89.3% [middle of 5 runs] | viability, T/C (compound 3.16 µM): 93.1% [middle of 5 runs] |
| Cn1nccc1Nc1nccc(-c2cc3c(s2)C(C)(C)N(CCN2CCOCC2)C3=O)n1 | – | – | 86.1% [middle of 5 runs] | 79.7% [middle of 5 runs] | 96.5% [middle of 5 runs] | viability, T/C (compound 3.16 µM): 54.2% [middle of 5 runs]; viability, T/C (compound 10 µM): 49.9% [middle of 5 runs] |
| Cn1ncnc1[C@H]1c2n[nH]c(=O)c3cc(F)cc(c23)N[C@@H]1c1ccc(F)cc1 | – | > 0.1 µM | – | – | 102% [middle of 5 runs] | viability, T/C (compound 0.000316 µM): 96.7% [middle of 5 runs]; viability, T/C (compound 0.001 µM): 101% [middle of 5 runs] |
| O=C(c1cc(Cc2n[nH]c(=O)c3ccccc23)ccc1F)N1CCN(C(=O)C2CC2)CC1 | – | > 10 µM | 84.4% [middle of 5 runs] | 89.5% [middle of 5 runs] | 91.9% [middle of 5 runs] | – |
